The target of assay [1] is T1, F508delCFTR in primary hBE cells with F508del/F508del CFTR mutation (Homo sapiens, UniProt P13569, DEL508-508).
T1 construct: cells isolated from CF patients with the homozygous mutation; endogenous in cells; host or cells: primary human bronchial epithelial (hBE) cells from F508del/F508del CF patients
Nature of the assay: Transepithelial Clamp Circuit on Human Bronchial Epithelial Cells Conductance Assay (hBE-TECC). In kind it is cell-based. Particulars: for pEC50: primary hBE cells F508del/F508del, 18-24 hours at 37° C., equivalent short circuit current, 6 concentrations. Put shortly:
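Primary F508del/F508del hBE cells grown 35 days at air-liquid interface, treated basolaterally with correctors 18-24 h at 37° C. Ieq (Vt/Rt) at 36.5° C, pH 7.4, after benzamil, forskolin 10 μM, control potentiator, bumetanide; 6 concentrations normalized to DMSO and 3 μM positive-control corrector, EC50 by 4-parameter fit.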

Assay [2] concerns the target T2, F508delCFTR cell surface expression in CFBE41o-F508delCFTR-HRP cells (Homo sapiens, UniProt P13569, DEL508-508).
T2 construct: fused on or other part: Horseradish peroxidase (HRP) reporter inserted in the fourth exofacial (extracellular) loop of CFTR; expression is doxycycline-inducible
Nature of the assay: Cell Surface Expression-Horse Radish Peroxidase (CSE-HRP) Assay. In kind it is cell-based. Particulars: for pEC50: CFBE41o-F508delCFTR-HRP cells, 18-24 hours at 33° C., 8-point curve, highest concentration 20 μM; for Maximum % activity (%): maximum at any tested concentration, normalized to on-plate positive control (3 μM). Put shortly:
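CFBE41o- cells with HRP-tagged F508delCFTR, expression induced by 0.5 μg/mL doxycycline for 72 h at 37 °C, then compound for 18-24 h at 33 °C (8-point, 3-fold, top 20 μM). Surface HRP measured by luminol luminescence; % activity normalised to 3 μM positive-control corrector; EC50 from variable-slope sigmoidal fit, three replicate plates.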

Setting [3] is: relative to positive control (3 μM) coupled with control potentiator.

The source of these data is patent US9840513B2 (AbbVie S.à.r.l., priority 2015, dated 2017).

pEC50: −log10 of the molar value.

T2 sequence (P13569 with tags, fused parts or gaps DEL508-508 limits assumed): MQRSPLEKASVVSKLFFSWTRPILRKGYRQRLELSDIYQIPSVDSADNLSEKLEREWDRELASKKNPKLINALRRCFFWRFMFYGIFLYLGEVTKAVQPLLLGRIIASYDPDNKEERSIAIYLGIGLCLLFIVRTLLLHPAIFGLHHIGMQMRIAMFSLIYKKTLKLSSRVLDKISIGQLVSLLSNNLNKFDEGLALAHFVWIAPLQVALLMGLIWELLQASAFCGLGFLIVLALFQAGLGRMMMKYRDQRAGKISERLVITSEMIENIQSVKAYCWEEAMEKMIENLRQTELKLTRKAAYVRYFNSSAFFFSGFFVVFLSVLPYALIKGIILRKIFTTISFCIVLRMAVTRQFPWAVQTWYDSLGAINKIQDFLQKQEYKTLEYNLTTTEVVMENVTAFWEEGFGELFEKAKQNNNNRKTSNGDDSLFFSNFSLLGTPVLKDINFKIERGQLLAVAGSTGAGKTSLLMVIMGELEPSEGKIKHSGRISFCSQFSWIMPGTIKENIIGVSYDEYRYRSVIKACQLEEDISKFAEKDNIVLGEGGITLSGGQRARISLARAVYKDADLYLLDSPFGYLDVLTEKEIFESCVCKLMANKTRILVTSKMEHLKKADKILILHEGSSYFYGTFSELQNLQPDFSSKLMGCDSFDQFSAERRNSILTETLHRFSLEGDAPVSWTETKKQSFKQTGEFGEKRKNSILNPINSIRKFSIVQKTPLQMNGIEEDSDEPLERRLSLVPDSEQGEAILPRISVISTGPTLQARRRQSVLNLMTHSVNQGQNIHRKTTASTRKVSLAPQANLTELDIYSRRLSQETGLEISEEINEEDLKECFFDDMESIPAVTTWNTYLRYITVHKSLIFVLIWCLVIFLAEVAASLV
T2 sequence (P13569 919-1480 limits assumed, stated change not applied): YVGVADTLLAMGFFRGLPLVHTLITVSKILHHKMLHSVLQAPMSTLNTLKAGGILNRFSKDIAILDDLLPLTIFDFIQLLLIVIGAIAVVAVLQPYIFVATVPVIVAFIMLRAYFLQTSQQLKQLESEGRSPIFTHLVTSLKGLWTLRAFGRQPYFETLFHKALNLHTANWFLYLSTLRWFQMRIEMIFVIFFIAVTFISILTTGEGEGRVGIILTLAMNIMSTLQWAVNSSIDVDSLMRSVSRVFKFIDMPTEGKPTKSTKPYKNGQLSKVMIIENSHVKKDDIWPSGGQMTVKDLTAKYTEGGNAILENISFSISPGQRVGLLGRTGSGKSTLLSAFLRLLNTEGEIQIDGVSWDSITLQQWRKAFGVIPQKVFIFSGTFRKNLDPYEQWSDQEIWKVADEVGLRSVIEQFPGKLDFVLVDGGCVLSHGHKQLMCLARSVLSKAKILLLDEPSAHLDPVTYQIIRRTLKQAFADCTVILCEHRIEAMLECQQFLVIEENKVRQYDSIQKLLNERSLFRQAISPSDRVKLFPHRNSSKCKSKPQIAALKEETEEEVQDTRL
T1 sequence (P13569 with tags, fused parts or gaps DEL508-508): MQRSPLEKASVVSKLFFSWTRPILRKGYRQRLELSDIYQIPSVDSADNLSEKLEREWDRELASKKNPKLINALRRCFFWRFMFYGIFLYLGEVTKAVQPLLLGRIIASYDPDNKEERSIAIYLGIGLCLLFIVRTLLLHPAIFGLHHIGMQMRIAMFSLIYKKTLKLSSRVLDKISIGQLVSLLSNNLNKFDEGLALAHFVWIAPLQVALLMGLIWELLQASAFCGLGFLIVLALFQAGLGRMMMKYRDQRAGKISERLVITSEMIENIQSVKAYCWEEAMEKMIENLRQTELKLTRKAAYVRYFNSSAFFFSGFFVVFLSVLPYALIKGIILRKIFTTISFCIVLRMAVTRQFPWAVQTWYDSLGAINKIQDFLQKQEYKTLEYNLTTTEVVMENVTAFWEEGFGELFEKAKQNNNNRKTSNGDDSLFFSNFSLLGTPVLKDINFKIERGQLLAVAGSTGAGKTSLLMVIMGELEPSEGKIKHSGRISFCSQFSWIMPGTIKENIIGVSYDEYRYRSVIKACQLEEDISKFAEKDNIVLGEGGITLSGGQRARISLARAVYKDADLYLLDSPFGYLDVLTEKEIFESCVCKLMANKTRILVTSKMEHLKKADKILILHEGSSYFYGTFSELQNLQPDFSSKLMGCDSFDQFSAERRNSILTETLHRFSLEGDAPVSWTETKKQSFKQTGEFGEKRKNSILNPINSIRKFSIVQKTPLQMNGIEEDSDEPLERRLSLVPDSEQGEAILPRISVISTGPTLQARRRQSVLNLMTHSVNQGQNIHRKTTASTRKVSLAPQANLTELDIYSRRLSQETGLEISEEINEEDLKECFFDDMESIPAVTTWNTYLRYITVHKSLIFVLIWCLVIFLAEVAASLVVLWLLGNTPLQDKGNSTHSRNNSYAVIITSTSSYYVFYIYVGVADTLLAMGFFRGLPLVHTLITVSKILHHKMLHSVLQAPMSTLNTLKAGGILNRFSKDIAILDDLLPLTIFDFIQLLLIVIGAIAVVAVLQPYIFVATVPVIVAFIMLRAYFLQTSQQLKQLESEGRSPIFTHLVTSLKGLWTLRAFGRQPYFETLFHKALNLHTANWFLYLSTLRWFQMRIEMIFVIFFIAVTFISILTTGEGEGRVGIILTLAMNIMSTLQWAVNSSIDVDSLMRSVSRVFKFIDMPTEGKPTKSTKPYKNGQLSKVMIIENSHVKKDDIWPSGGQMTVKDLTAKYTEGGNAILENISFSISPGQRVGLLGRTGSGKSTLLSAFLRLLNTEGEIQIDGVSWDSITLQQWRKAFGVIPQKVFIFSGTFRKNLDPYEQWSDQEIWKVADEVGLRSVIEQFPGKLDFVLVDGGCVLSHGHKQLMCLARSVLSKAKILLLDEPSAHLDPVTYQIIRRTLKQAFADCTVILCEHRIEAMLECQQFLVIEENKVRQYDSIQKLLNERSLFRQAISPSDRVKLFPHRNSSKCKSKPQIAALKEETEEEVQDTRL

Usually pEC50 stands for −log10 of the EC50, conventionally taken in molar units. On to `COc1ccc2c(c1)O[C@@H](c1ccc(C(=O)O)cc1)C[C@H]2NC(=O)[C@]1(C)CCc2c1ccc1c2OCO1` [Example 46, 4-[(2R,4R)-7-methoxy-4-{[(6R)-6-methyl-7,8-dihydro-2H,6H-indeno[4,5-d][1,3]dioxole-6-carbonyl]amino}-3,4-dihydro-2H-1-benzopyran-2-yl]benzoic acid], for which the values for the negative logarithm of the EC50 (pEC50) in assay [1] and in assay [2] were 6.66 and 6.37, respectively. The “Maximum % activity (%)” value in assay [1] (setting [3]) was 105%; in assay [2] it was 142%.

As to `COc1ccc2c(c1)O[C@@H](c1ccc(=O)[nH]n1)C[C@H]2NC(=O)[C@@]1(C)COc2cc3c(cc21)OC(F)(F)O3` [Example 197, (7R)-2,2-difluoro-N-[(2R,4R)-7-methoxy-2-(6-oxo-1,6-dihydropyridazin-3-yl)-3,4-dihydro-2H-1-benzopyran-4-yl]-7-methyl-6,7-dihydro-2H-furo[2,3-f][1,3]benzodioxole-7-carboxamide], the pEC50 was 8.22 in assay [1] and 7.40 in assay [2]. For the same molecule, the “Maximum % activity (%)” value is 105% in assay [1] (setting [3]) and 130% in assay [2].

Regarding `C[C@]1(C(=O)Nc2cccc(N3CC[C@H](C(=O)O)C3)n2)COc2cc3c(cc21)OC(F)(F)O3` [Example 90, (3S)-1-(6-{[(7R)-2,2-difluoro-7-methyl-6,7-dihydro-2H-furo[2,3-f][1,3]benzodioxole-7-carbonyl]amino}pyridin-2-yl)pyrrolidine-3-carboxylic acid], the “Maximum % activity (%)” value in assay [1] (testing concentration 1 μM) was 65%. For the same molecule, in assay [2], the negative logarithm of the EC50 (pEC50) is 6.21 and the “Maximum % activity (%)” value was 127%.

On to `COc1ccc2c(c1)O[C@@H](c1ccc(N3C[C@@H](O)[C@H](O)C3)nn1)C[C@H]2NC(=O)[C@@]1(C)COc2cc3c(cc21)OC(F)(F)O3` [Example 251, (7R)—N-[(2R,4R)-2-{6-[(3R,4R)-3,4-dihydroxypyrrolidin-1-yl]pyridazin-3-yl}-7-methoxy-3,4-dihydro-2H-1-benzopyran-4-yl]-2,2-difluoro-7-methyl-6,7-dihydro-2H-furo[2,3-f][1,3]benzodioxole-7-carboxamide], for which the negative-log EC50 (pEC50) in assay [1] is 8.30; in assay [2], 7.52. For the same molecule, the “Maximum % activity (%)” value in assay [1] (setting [3]) is given as 86%; in assay [2], 128%.

Consider `C[C@]1(C(=O)N[C@@H]2C[C@H]([C@H]3CC[C@H](C(=O)O)CC3)Oc3cc(OC(F)F)ccc32)COc2cc3c(cc21)OC(F)(F)O3` [Example 160, trans-4-[(2R,4R)-7-(difluoromethoxy)-4-{[(7R)-2,2-difluoro-7-methyl-6,7-dihydro-2H-furo[2,3-f][1,3]benzodioxole-7-carbonyl]amino}-3,4-dihydro-2H-1-benzopyran-2-yl]cyclohexane-1-carboxylic acid], for which the values for the pEC50 in assay [1] and in assay [2] were 8.30 and 7.36, respectively. In addition, the “Maximum % activity (%)” value in assay [1] (setting [3]) came to 85%; in assay [2], 136%.

For the molecule `C[C@]1(C(=O)N[C@@H]2C[C@H]([C@H]3CC[C@H](C(=O)NCC(O)CO)CC3)Oc3cc(OC(F)(F)F)ccc32)COc2cc3c(cc21)OC(F)(F)O3` (stereo partly drawn) [Example 260, (7R)—N-[(2R,4R)-2-{trans-4-[(2,3-dihydroxypropyl)carbamoyl]cyclohexyl}-7-(trifluoromethoxy)-3,4-dihydro-2H-1-benzopyran-4-yl]-2,2-difluoro-7-methyl-6,7-dihydro-2H-furo[2,3-f][1,3]benzodioxole-7-carboxamide], the results for the pEC50 in assay [1] and in assay [2] were 7.16 and 6.89, respectively. In addition, the “Maximum % activity (%)” value was determined as 129% in assay [1] (setting [3]) and 174% in assay [2].
